From PMC2395260 (Genome Biology, 2008)
pIC50: −log10 of the molar value. Like-named read-outs stand apart in the source and are kept apart here.

Experiments:
[1] = tested on: HCV subgenomic replicon (genotype 1b) harboring the V36G mutant in Huh-7.5 cells; experiment: Two-day HCV replicon assay, V36G mutant; type: cell-based, hepatitis C virus genotype 1b; details: for pIC50: Hepatitis C virus, Huh7.5, 48 h, read-out: IC50 (HCV RNA level in replicon cells reduced by 50%); for viral suppression in V36G mutant replicon assay in comparison to wild-type replicon assay: V36G versus wild-type replicon, genotype 1b, 48 h
Method: Only the SCH 503034 inhibitor is lacking the cyclopropyl group (Figure 1). We used a wild-type HCV replicon assay (genotype 1b) and an assay harboring the V36G mutant for in vitro testing. Detailed information on experimental procedures is given in Materials and methods.
SCH 503034 was synthesized by Schering-Plough Corporation (Kenilworth, NJ, USA), dissolved in dimethyl sulfoxide as a 19 mM solution. Both compounds were stored at 4°C.
The plasmid pFKI389neo/NS3-3'/ET contains HCV subgenomic replicon sequences derived from HCV genotype 1b and an upstream T7 promoter for in vitro RNA synthesis. The point mutation was generated with the QuikChange II XL Site-Directed Mutagenesis Kit (Stratagene, La Jolla, CA, USA). The plasmid was linearized with ScaI and purified by phenol chloroform extraction. The linearized and purified plasmid was transcribed by using a T7 RNA polymerase (Promega, Madison, WI, USA) according to the manufacturer's instructions. All of the plasmids and RNAs were checked for purity and integrity by standard procedures.
Huh-7.5 cells were cultured in Dulbecco's modified Eagle's medium (DMEM; Invitrogen, Carlsbad, CA, USA) containing 10% fetal bovine serum (FBS; PAA Laboratories GmbH, Pasching, Germany) and 2 mM L-glutamine. The cells were transfected with an in vitro-transcribed subgenomic HCV replicon RNA. The wild-type sequence was identical to that of the pFKI389neo/NS3-3'/ET replicon. Stable cells containing the self-replicating HCV replicon were selected and maintained in the presence of 750 μg of G418 (Invitrogen) per ml and were used for HCV replicon assays.
HCV replicon cells were plated in a 6-well plate at a density of 2 × 10^5 cells per well in DMEM with 10% FBS. On the following day (24 h later), the culture medium was replaced with DMEM containing either no compound as a control or compounds serially diluted in the presence of 10% FBS and 750 μg/ml G418. After the cells were incubated with the compounds for 48 h, the intracellular RNA was extracted with an RNeasy kit (Qiagen, Valencia, CA, USA). The level of HCV RNA was determined by a real-time quantitative reverse transcription-PCR (RT-PCR) assay (Taqman) with a pair of HCV-specific primers (5'-[…]-3' and 5'-[…]-3'), an HCV-specific probe (5'-6FAM-[…] XT-PH-3), and an ABI Prism 7000 sequence detection system (Applied Biosystems, Foster City, CA, USA).

[2] = tested on: NS3-4A protease T54S mutant; details: cited from earlier work
[3] = tested on: NS3-4A protease A156I/T/V mutants; details: range over A156I/T/V mutants; cited from earlier work
[4] = tested on: NS3-4A protease R155G/I/K/L/M/S/T mutants; details: cited from earlier work
HCV genotype 1 = details: phase 1b clinical trial, after treatment duration of 24 hours; cited from earlier work
[5] = tested on: NS3-4A protease T54A mutant; details: cited from earlier work
[6] = tested on: wild-type NS3-4A protease, HCV genotype 1a (HCV-H); details: HCV genotype 1a reference strain HCV-H; cited from earlier work
[7] = tested on: NS3-4A protease V36A/G/L/M mutants; details: cited from earlier work
[8] = tested on: NS3-4A protease A156S mutant; details: cited from earlier work

| SMILES | pIC50 [1] | viral suppression in V36G mutant replicon assay in comparison to wild-type replicon assay [1] | pIC50 [2] | pIC50 [3] | pIC50 ([4]; R155G/I/K/L/M/S/T mutants, read-out: IC50 mean) | pIC50 ([4]; range over R155G/I/K/L/M/S/T mutants, read-out: IC50 range) | HCV RNA decline (HCV genotype 1) | pIC50 [5] | pIC50 [6] | pIC50 ([7]; V36A/G/L/M mutants, read-out: IC50 mean) | pIC50 ([7]; range over V36A/G/L/M mutants, read-out: IC50 range) | pIC50 [8] |
| --- | --- | --- | --- | --- | --- | --- | --- | --- | --- | --- | --- | --- |
| CC(C)(C)NC(=O)N[C@H](C(=O)N1C[C@H]2[C@@H]([C@H]1C(=O)NC(CC1CCC1)C(=O)C(N)=O)C2(C)C)C(C)(C)C (some centres unmarked) [SCH 503034, boceprevir] | > 5.30 | nearly equally effective | – | – | – | – | – | – | – | – | – | – |
| CCC[C@H](NC(=O)[C@@H]1[C@H]2CCC[C@H]2CN1C(=O)[C@@H](NC(=O)[C@@H](NC(=O)c1cnccn1)C1CCCCC1)C(C)(C)C)C(=O)C(=O)NC1CC1 [VX-950, telaprevir] | ~5.30 | considerably delayed | 6.92 | 4.30 to 4.90 | 6.27 | 5.98 to 6.56 | above 3 log | 6.13 | 7.15 | 6.65 | 6.35 to 6.96 | 5.85 |
